Where two headings read alike, the source gives them in different places.
Experiments:
[1] = In vitro stability in liver microsomes, human; assay type: in vitro ADME; settings: 0.5 mg/mL
Description: Metabolic stabilities of the assay compound in liver microsomes of CD-1 mice, SD rats, beagle dogs, cynomolgus monkeys, and human were assayed, respectively.
Two 96-well incubation plates were prepared and named T60 incubation plate and NCF60 incubation plate, respectively. 445 μL of microsomal working solutions (liver microsomal protein concentration of 0.56 mg/mL) were added to the T60 incubation plate and the NCF60 incubation plate, respectively, and then the above incubation plates were pre-incubated in a 37° C. water bath for about 10 minutes.
After the pre-incubation, 5 μL of working solutions of the assay sample or the control compound were added to the T60 incubation plate and the NCF60 incubation plate, respectively, and the mixture was mixed well. 50 μL of potassium phosphate buffer was added to each well of the NCF60 incubation plate to initiate the reaction. 180 μL of stop solution (200 ng/mL tolbutamide and 200 ng/mL labetalol in acetonitrile) and 6 uL of NADPH regeneration system working solution were added to the T0 stop plate, and 54 μL of sample was transferred from T60 incubation plate to T0 stop plate (generation of T0 sample). The reaction was initiated by adding 44 μL of NADPH regeneration system working solution to each well of the T60 incubation plate. Only 54 μL of microsome working solution, 6 uL of NADPH regeneration system working solution and 180 μL of stop solution were added to the Blank plate. Therefore, in samples of the assay compound or the control compound, the final reaction concentration of compound, testosterone, diclofenac and propafenone was 1 μM, the concentration of liver microsomes was 0.5 mg/mL, and the final reaction concentrations of DMSO and acetonitrile in the reaction system were 0.01% (v/v) and 0.99% (v/v), respectively. […] All samples were injected and analyzed by liquid chromatography-tandem mass spectrometry.

[2] = Stability in plasma, human; assay type: in vitro ADME; settings: 2 μM, 37° C.
Description: Stabilities of the assay compound in plasma of CD-1 mice and human were assayed, respectively. Cryopreserved plasma was thawed for 10 to 20 min. After the plasma was completely thawed, it was placed in a centrifuge and centrifuged at 3220×g for 5 min to remove any suspended matter and sediment in the plasma. 96-well incubation plates were prepared and named T0, T10, T30, T60, T120, respectively. 98 μL of blank plasmas of mouse, rat, canine, monkey and human were added to the corresponding incubation plates, then 2 μL of working solutions of the compound or the control compound were added to the corresponding plates in duplicate. All samples were incubated in a 37° C. water bath. The final incubation concentrations of the compound and the control compounds bisacodyl, enalapril maleate, procaine and probanthine were 2 μM, and the final organic phase content was 2.0%. At the end of incubation for each time point, the corresponding incubation plate was removed and 400 μL of a solution of 200 ng/mL of tolbutamide and labetalol in acetonitrile was added to each corresponding sample well to precipitate the protein. All sample plates were sealed and shaken well, and then centrifuged at 3220×g for 20 minutes. 50 μL of supernatant was taken out and diluted in 100 μL of ultrapure water. All samples were mixed well and then analyzed by LC/MS/MS.

[3] = Pharmacokinetics by oral administration and intravenous injection in CD mice; assay type: in vivo; settings: for Area under the plasma concentration-time curve, AUCu: AUC0-last × PPB(Unbound %); for Vd: CD, iv, 2 mg/kg; for AUC(0-t): read-out: Area under the plasma concentration-time curve, AUC0-last
Description: The mixture was vortexed and sonicated to prepare a 1 mg/mL clear solution, which was filtered through a microporous membrane for later use. Male CD mice aged 7 to 10 weeks were selected, and administered candidate compound solutions intravenously or orally. Whole blood was collected for a certain period of time, and prepared to obtain plasma. Drug concentration was analyzed by LC-MS/MS method, and pharmacokinetic parameters were calculated by Phoenix WinNonlin software (Pharsight, USA).

[4] = Body weight and tolerance in the Mia PaCa-2 tumor model; assay type: in vivo; settings: each dose group (10 and 30 mg/kg PO QD × 22)
Description: Assay on pharmacodynamics in vivo in a subcutaneously transplanted tumor model of human pancreatic cancer Mia PaCa-2 cells in Balb/c Nude mice
Cell inoculation: 0.2 mL (5×10^6 cells/mouse) of Mia PaCa-2 cells (plus Matrigel, 1:1 by volume) were subcutaneously inoculated into the right back of each mouse. When the average tumor volume reached 190 mm^3, mice were randomized into groups based on tumor volume and administration was initiated according to the protocol in Table 15.

## C=C(F)C(=O)N1CCN(c2nc(OC[C@@]34CCCN3C[C@H](F)C4)nc3c2CO[C@H](c2c(F)c(N)cc(C)c2C(F)(F)F)C3)C[C@@H]1CC#N [Compound of formula (I)]
[1]
  CLint scaled at 1 μM: 61.1 mL/min/kg
  half-life at 1 μM: 0.34 h
[1]; read-out: CLint(hep)
  microsomal CLint at 1 μM: 67.9 µL/min/mg
[2]
  Detection of assay compound content within 120 min: 93%
[3]; intravenous injection, 2.0 mg/kg
  Area under the plasma concentration-time curve, AUCu: 0.1556 µM·h
[3]; male, mouse, plasma, intravenous injection, 2.0 mg/kg, Vdss/PPB(Unbound %), read-out: Apparent volume of distribution, Vdss, u
  Vd: 32.3 L/kg
[3]; male, mouse, plasma, intravenous injection, 2.0 mg/kg, read-out: Apparent volume of distribution, Vdss
  Vd: 3.9 L/kg
[3]; male, mouse, plasma, intravenous injection, 2.0 mg/kg
  AUC(0-t): 1.3 µM·h
[3]; male, mouse, plasma, intravenous injection, 2.0 mg/kg, read-out: Clearance rate, CL
  clearance: 40.6 mL/min/kg
[3]; male, mouse, plasma, intravenous injection, 2.0 mg/kg, read-out: Half-life time, T1/2 (converted)
  half-life: 1.7 h
[3]; male, mouse, plasma, oral administration, 10.3 mg/kg
  AUC(0-t): 1.42 µM·h
[3]; male, mouse, plasma, oral administration, 10.3 mg/kg, read-out: Bioavailability F (%)
  bioavailability: 21.9%
[3]; male, mouse, plasma, oral administration, 10.3 mg/kg, read-out: Peak concentration, Cmax
  Cmax: 431 nM
[3]; male, mouse, plasma, oral administration, 10.3 mg/kg, read-out: Time-to-peak, Tmax
  Tmax: 1 h
[3]; oral administration, 10.3 mg/kg
  Area under the plasma concentration-time curve, AUCu: 0.1706 µM·h
[3]; oral administration, 10.3 mg/kg, Cmax × PPB(Unbound %)
  Peak concentration, Cmax, u: 51.7 nM
[4]
  body weight of mice: stable
  tolerance: no obvious intolerance
